The values below come from patent US10745361B2, “Piperazine derivatives having multimodal activity against pain” (ESTEVE PHARMACEUTICALS, S.A., priority 2013, dated 2020).

Bounds are passed on as bounds.

This assay relates to human σ1 receptor and human μ-opioid receptor. The experiment in a line: Human σ1 receptor radioligand assay and human μ-opioid receptor radioligand assay (μ and σ1 dual binding). Particulars: one class for both Ki: σ1 ([3H](+)-pentazocine, transfected HEK-293 membranes) and μ-opioid ([3H]-DAMGO, transfected CHO-K1 membranes). Also noted: key to μ and σ1 dual binding: +: Both Ki-μ and Ki-σ1>=500 nM; ++: One K, <500 nM while the other K, is >=500 nM; +++: Both Ki-μ and Ki-σ1<500 nM; ++++: Both Ki-μ and Ki-σ1<100 nM. Here is the method:
Human σ1 Receptor Radioligand Assay
To investigate binding properties of σ1 receptor ligands to human σ1 receptor, transfected HEK-293 membranes and [^3H](+)-pentazocine (Perkin Elmer, NET-1056), as the radioligand, were used. The assay was carried out with 7 μg of membrane suspension, 5 nM of [^3H](+)-pentazocine in either absence or presence of either buffer or 10 μM Haloperidol for total and non-specific binding, respectively. Binding buffer contained Tris-HCl 50 mM at pH 8. Plates were incubated at 37° C. for 120 minutes. After the incubation period, the reaction mix was then transferred to MultiScreen HTS, FC plates (Millipore), filtered and plates were washed 3 times with ice-cold 10 mM Tris-HCL (pH7.4). Filters were dried and counted at approximately 40% efficiency in a MicroBeta scintillation counter (Perkin-Elmer) using EcoScint liquid scintillation cocktail
Human μ-Opioid Receptor Radioligand Assay
To investigate binding properties of p-opioid receptor ligands to human p-opioid receptor, transfected CHO-K1 cell membranes and [^3H]-DAMGO (Perkin Elmer, ES-542-C), as the radioligand, were used. The assay was carried out with 20 μg of membrane suspension, 1 nM of [^3H]-DAMGO in either absence or presence of either buffer or 10 μM Naloxone for total and non-specific binding, respectively. Binding buffer contained Tris-HCl 50 mM, MgCl2 5 mM at pH 7.4. Plates were incubated at 27° C. for 60 minutes. After the incubation period, the reaction mix was then transferred to MultiScreen HTS, FC plates (Millipore), filtered and plates were washed 3 times with ice-cold 10 mM Tris-HCL (pH 7.4). Filters were dried and counted at approximately 40% efficiency in a MicroBeta scintillation counter (Perkin-Elmer) using
EcoScint liquid scintillation cocktail.
The following scale as been adopted for representing the binding to the σ1 receptor and the μ-opiod receptor expressed as Ki: • + Both Ki-μ and Ki-σ1>=500 nM • ++ One K, <500 nM while the other K, is >=500 nM • +++ Both Ki-μ and Ki-σ1<500 nM • ++++ Both Ki-μ and Ki-σ1<100 nM
As to `CC(C)S(=O)(=O)Nc1cccc(N2CCCN(Cc3cn(Cc4ccccn4)nn3)CC2)n1` [Example 59, N-(6-(4-((1-(pyridin-2-ylmethyl)-1H-1,2,3-triazol-4-yl)methyl)-1,4-diazepan-1-yl)pyridin-2-yl)propane-2-sulfonamide], the “μ and σ1 dual binding” value was “++”.
In general, Ki refers to a measure of affinity in units of concentration, obtained from inhibition or displacement. Compound `CC(C)S(=O)(=O)Nc1cccc(N2CCCN(Cc3cn(-c4ccccc4F)nn3)CC2)n1` [Example 60, N-(6-(4-((1-(2-fluorophenyl)-1H-1,2,3-triazol-4-yl)methyl)-1,4-diazepan-1-yl)pyridin-2-yl)propane-2-sulfonamide] yielded an inhibitory constant (Ki) of less than 0.5 µM.
As for `CC(C)S(=O)(=O)Nc1cccc(N2CC3CN(Cc4cn(-c5ccccc5F)nn4)CC3C2)n1` (stereo not drawn) [Example 61, N-(6-(5-((1-(2-fluorophenyl)-1H-1,2,3-triazol-4-yl)methyl)hexahydropyrrolo[3,4-c]pyrrol-2(1H)-yl)pyridin-2-yl)propane-2-sulfonamide], the “μ and σ1 dual binding” value is “++”.
For `CC(C)S(=O)(=O)Nc1cccc(N2CCN(Cc3cn(-c4ccccn4)cn3)CC2)n1` [Example 62, N-(6-(4-((1-(pyridin-2-yl)-1H-imidazol-4-yl)methyl)piperazin-1-yl)pyridin-2-yl)propane-2-sulfonamide], the Ki was less than 0.5 µM.
Same read-out and setting: under `Nc1cccc(N2CCN(Cc3cn(-c4ccccc4)nn3)CC2)n1` [Example 63, 6-(4-((1-phenyl-1H-1,2,3-triazol-4-yl)methyl)piperazin-1-yl)pyridin-2-amine] stands no less than 0.5 µM.
As for `O=S(=O)(Nc1cccc(N2CCN(Cc3cn(-c4ncccc4F)nn3)CC2)n1)C1CC1` [Example 64, N-(6-(4-((1-(3-fluoropyridin-2-yl)-1H-1,2,3-triazol-4-yl)methyl)piperazin-1-yl)pyridin-2-yl)cyclopropanesulfonamide], the “μ and σ1 dual binding” value is listed as “++”.
Take `O=S(=O)(Nc1cccc(N2CCN(Cc3cn(-c4cc(F)ccc4F)nn3)CC2)n1)C1CC1` [Example 65, N-(6-(4-((1-(2,5-difluorophenyl)-1H-1,2,3-triazol-4-yl)methyl)piperazin-1-yl)pyridin-2-yl)cyclopropanesulfonamide]: the “μ and σ1 dual binding” value is recorded as “++”.
`Cc1ccc(F)c(-n2cc(CN3CCN(c4cccc(NS(=O)(=O)C5CC5)n4)CC3)nn2)c1` [Example 66, N-(6-(4-((1-(2-fluoro-5-methylphenyl)-1H-1,2,3-triazol-4-yl)methyl)piperazin-1-yl)pyridin-2-yl)cyclopropanesulfonamide]: the “μ and σ1 dual binding” value is given as “++”.
On the same count and under the same terms, then `O=S(=O)(Nc1cccc(N2CCN(Cc3cn(-c4ccc(C(F)(F)F)cn4)nn3)CC2)n1)C1CC1` [Example 67, N-(6-(4-((1-(5-(trifluoromethyl)pyridin-2-yl)-1H-1,2,3-triazol-4-yl)methyl)piperazin-1-yl)pyridin-2-yl)cyclopropanesulfonamide], with “++”; and `O=S(=O)(Nc1cccc(N2CCN(Cc3cn(-c4ccc(C(F)(F)F)cc4)nn3)CC2)n1)C1CC1` [Example 68, N-(6-(4-((1-(4-(trifluoromethyl)phenyl)-1H-1,2,3-triazol-4-yl)methyl)piperazin-1-yl)pyridin-2-yl)cyclopropanesulfonamide], with “++”; and `O=S(=O)(Nc1cccc(N2CCN(Cc3cn(-c4ccc(C(F)(F)F)cc4F)nn3)CC2)n1)C1CC1` [Example 69, N-(6-(4-((1-(2-fluoro-4-(trifluoromethyl)phenyl)-1H-1,2,3-triazol-4-yl)methyl)piperazin-1-yl)pyridin-2-yl)cyclopropanesulfonamide], with “++”.
Compound `O=S(=O)(Nc1cccc(N2CCN(Cc3cn(-c4ccccc4)cn3)CC2)n1)C1CC1` [Example 70, N-(6-(4-((1-phenyl-1H-imidazol-4-yl)methyl)piperazin-1-yl)pyridin-2-yl)cyclopropanesulfonamide] registered a Ki of less than 0.5 µM.
As to `O=S(=O)(Nc1cccc(N2CCN(Cc3cn(-c4ccccc4F)cn3)CC2)n1)C1CC1` [Example 71, N-(6-(4-((1-(2-fluorophenyl)-1H-imidazol-4-yl)methyl)piperazin-1-yl)pyridin-2-yl)cyclopropanesulfonamide], the Ki was less than 0.5 µM.
In the case of `Nc1cccc(N2CCN(Cc3cn(-c4ccccc4F)nn3)CC2)n1` [Example 72, 6-(4-((1-(2-fluorophenyl)-1H-1,2,3-triazol-4-yl)methyl)piperazin-1-yl)pyridin-2-amine], the “μ and σ1 dual binding” value was “++”.
For the compound `O=S(=O)(Nc1cccc(N2CCN(Cc3cn(-c4ccccn4)cn3)CC2)n1)C1CC1` [Example 73, N-(6-(4-((1-(pyridin-2-yl)-1H-imidazol-4-yl)methyl)piperazin-1-yl)pyridin-2-yl)cyclopropanesulfonamide], the Ki was less than 0.5 µM.
